Laboratory results as given in patent US11702404B2, “GLP-1R modulating compounds” (priority 2019, dated 2023).
Where two headings read alike, the source gives them in different places.

Legend:
[1] = Microsomal stability, human liver microsomes (predicted hepatic clearance); settings: predicted from in vitro microsomal stability data
GLP-1R = GLP-1R (Homo sapiens, UniProt P43220); test: GLP-1R activation: cAMP increase in CHO cells stably expressing GLP-1R; assay type: cell-based
[2] = cAMP increase, CHO cells stably expressing GLP-1R, 10 point dose response, 30 minutes incubation, read-out: EC50

GLP-1R, sequence (P43220 24-463): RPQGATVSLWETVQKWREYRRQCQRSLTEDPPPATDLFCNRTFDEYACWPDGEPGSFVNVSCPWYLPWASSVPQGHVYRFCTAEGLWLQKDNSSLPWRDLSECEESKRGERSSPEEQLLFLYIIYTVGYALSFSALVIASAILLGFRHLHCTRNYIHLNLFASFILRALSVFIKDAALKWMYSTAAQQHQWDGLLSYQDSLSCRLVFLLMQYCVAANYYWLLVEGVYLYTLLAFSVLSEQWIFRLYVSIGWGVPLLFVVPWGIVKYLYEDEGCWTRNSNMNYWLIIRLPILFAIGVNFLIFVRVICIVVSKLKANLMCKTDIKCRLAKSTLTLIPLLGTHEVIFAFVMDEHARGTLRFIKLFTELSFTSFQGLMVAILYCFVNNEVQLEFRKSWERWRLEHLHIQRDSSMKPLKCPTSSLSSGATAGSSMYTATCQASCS

Row | SMILES | Predicted Hepatic Clearance (Pred. Cl.) [1] | EC50 (GLP-1R; [2]) | EC50 (GLP-1R; EC50 (nM)) | EC50 (GLP-1R; read-out: EC50)
1 | COCCn1c(Cc2ccc(-c3cc(C)cc(OCc4ccc(C#N)cc4F)n3)cc2F)nc2ccc(C(=O)O)cc21 [Example 31, 2-(4-(6-((4-cyano-2-fluorobenzyl)oxy)-4-methylpyridin-2-yl)-2-fluorobenzyl)-1-(2-methoxyethyl)-1H-benzo[d]imidazole-6-carboxylic acid] | 4.67 mL/min/kg | 32 nM | – | –
2 | N#Cc1ccc(COc2nc(-c3ccc(Cc4nc5c(F)cc(C(=O)O)cc5n4C[C@@H]4CCO4)cc3F)ncc2F)c(F)c1 [Example 666] | 3.33 mL/min/kg | 0.51 nM | – | –
3 | CC(C)(CF)Cn1c(Cc2ccc(-c3cccc(OCc4ccc(C#N)cc4F)n3)c(F)c2)nc2ccc(C(=O)O)cc21 [Example 294, 2-(4-(6-((4-cyano-2-fluorobenzyl)oxy)pyridin-2-yl)-3-fluorobenzyl)-1-(3-fluoro-2,2-dimethylpropyl)-1H-benzo[d]imidazole-6-carboxylic acid] | 8.3 mL/min/kg | – | 0.75 nM | –
4 | N#Cc1ccc(COc2cccc(-c3cc(F)c(Cc4nc5ccc(C(=O)O)nc5n4CCOC(F)F)cc3F)n2)c(F)c1 [Example 583, 2-(4-(6-((4-cyano-2-fluorobenzyl)oxy)pyridin-2-yl)-2,5-difluorobenzyl)-3-(2-(difluoromethoxy)ethyl)-3H-imidazo[4,5-b]pyridine-5-carboxylic acid] | 10.3 mL/min/kg | 2.39 nM | – | –
5 | COCCn1c(Cc2cc(F)c(-c3cccc(OCc4cc(F)c(Cl)cc4F)n3)cc2F)nc2ccc(C(=O)O)cc21 [Example 564, 2-(4-(6-((4-chloro-2,5-difluorobenzyl)oxy)pyridin-2-yl)-2,5-difluorobenzyl)-1-(2-methoxyethyl)-1H-benzo[d]imidazole-6-carboxylic acid] | 3.42 mL/min/kg | 1.96 nM | – | –
6 | N#Cc1ccc(COc2cccc(-c3cc(F)c(Cc4nc5ccc(C(=O)O)cc5n4C4CC5(COC5)C4)cc3F)n2)c(F)c1 [Example 728] | 8.33 mL/min/kg | 93.6 nM | – | –
7 | COCCn1c(Cc2ccc(-c3cccc(OCc4cccc(C(C)C)c4F)n3)cc2F)nc2ccc(C(=O)O)cc21 [Example 158, 2-(2-fluoro-4-(6-((2-fluoro-3-isopropylbenzyl)oxy)pyridin-2-yl)benzyl)-1-(2-methoxyethyl)-1H-benzo[d]imidazole-6-carboxylic acid] | 3.83 mL/min/kg | 37.1 nM | – | –
8 | COCCn1c(Cc2cc(F)c(-c3cccc(OCc4ccc(C#N)c(F)c4F)n3)cc2F)nc2ccc(C(=O)O)cc21 [Example 859] | 1.83 mL/min/kg | 11.6 nM | – | –
9 | COCCn1c(Cc2ccc(-c3cccc(OCc4ccc(C#N)cc4F)n3)cc2C2CC2)nc2ccc(C(=O)O)cc21 [Example 178, 2-(4-(6-((4-cyano-2-fluorobenzyl)oxy)pyridin-2-yl)-2-cyclopropylbenzyl)-1-(2-methoxyethyl)-1H-benzo[d]imidazole-6-carboxylic acid] | 9.83 mL/min/kg | 32.5 nM | – | –
10 | N#Cc1ccc(COc2nccc(-c3cc(F)c(Cc4nc5ccc(C(=O)O)cc5n4CCOC4CC4)cc3F)n2)c(F)c1 [Example 897] | 2.17 mL/min/kg | 4.1 nM | – | –
11 | COCCn1c(Cc2ccc(-c3cccc(OCc4cccc(OC(F)F)c4F)n3)cc2F)nc2ccc(C(=O)O)cc21 [Example 138, 2-(4-(6-((3-(difluoromethoxy)-2-fluorobenzyl)oxy)pyridin-2-yl)-2-fluorobenzyl)-1-(2-methoxyethyl)-1H-benzo[d]imidazole-6-carboxylic acid] | 7.5 mL/min/kg | 84.7 nM | – | –
12 | N#Cc1ccc(COc2cccc(-c3ccc(Cc4nc5ccc(C(=O)O)cc5n4C[C@@H]4CCN4C4COC4)c(F)c3)n2)c(F)c1 [Example 395, (S)-2-(4-(6-((4-cyano-2-fluorobenzyl)oxy)pyridin-2-yl)-2-fluorobenzyl)-1-((1-(oxetan-3-yl)azetidin-2-yl)methyl)-1H-benzo[d]imidazole-6-carboxylic acid] | <1.83 mL/min/kg | – | – | 42.3 nM
13 | N#Cc1ccc(COc2cccc(-c3cc(F)c(Cc4nc5ccc(C(=O)O)cc5n4CC4(CF)CC4)cc3F)n2)c(F)c1 [Example 429, 2-(4-(6-((4-cyano-2-fluorobenzyl)oxy)pyridin-2-yl)-2,5-difluorobenzyl)-1-((1-(fluoromethyl)cyclopropyl)methyl)-1H-benzo[d]imidazole-6-carboxylic acid] | 3.83 mL/min/kg | 0.61 nM | – | –
14 | COC(Cn1c(Cc2ccc(-c3cccc(OCc4ccc(C#N)cc4F)n3)cc2F)nc2ccc(C(=O)O)cc21)C(=O)O (single isomer, unassigned) [Example 333, 1-(2-carboxy-2-methoxyethyl)-2-(4-(6-((4-cyano-2-fluorobenzyl)oxy)pyridin-2-yl)-2-fluorobenzyl)-1H-benzo[d]imidazole-6-carboxylic acid] | <1.83 mL/min/kg | 624 nM | – | –
15 | N#Cc1ccc(COc2cccc(-c3ccc(Cc4nc5ccc(C(=O)O)cc5n4C4CCC4)c(F)c3)n2)c(F)c1 [Example 223, 2-(4-(6-((4-cyano-2-fluorobenzyl)oxy)pyridin-2-yl)-2-fluorobenzyl)-1-cyclobutyl-1H-benzo[d]imidazole-6-carboxylic acid] | 3.5 mL/min/kg | 16.4 nM | – | –
16 | COCCn1c(Cc2c(F)cc(-c3nccnc3OCc3ccc(C#N)cc3F)cc2F)nc2ccc(C(=O)O)cc21 [Example 177, 2-(4-(3-((4-cyano-2-fluorobenzyl)oxy)pyrazin-2-yl)-2,6-difluorobenzyl)-1-(2-methoxyethyl)-1H-benzo[d]imidazole-carboxylic acid] | 7 mL/min/kg | 335 nM | – | –
17 | COC(=O)N1CCC[C@@H]1Cn1c(Cc2cc(F)c(-c3cccc(OCc4ccc(C#N)cc4F)n3)cc2F)nc2ccc(C(=O)O)cc21 [Example 589, (R)-2-(4-(6-((4-cyano-2-fluorobenzyl)oxy)pyridin-2-yl)-2,5-difluorobenzyl)-1-((1-(methoxycarbonyl)pyrrolidin-2-yl)methyl)-1H-benzo[d]imidazole-6-carboxylic acid] | 8.17 mL/min/kg | – | – | 5.46 nM
18 | CC(=O)N1C[C@@H](F)C[C@@H]1Cn1c(Cc2cc(F)c(-c3cccc(OCc4ccc(C#N)cc4F)n3)cc2F)nc2ccc(C(=O)O)cc21 [Example 690] | 6 mL/min/kg | – | – | 3.98 nM
19 | CC(C)(CF)Cn1c(Cc2ccc(-c3cccc(OCc4ccc(C#N)cc4F)n3)cc2F)nc2ccc(C(=O)NS(=O)(=O)C3CC3)cc21 [Example 51, 2-(4-(6-((4-cyano-2-fluorobenzyl)oxy)pyridin-2-yl)-2-fluorobenzyl)-N-(cyclopropylsulfonyl)-1-(3-fluoro-2,2-dimethylpropyl)-1H-benzo[d]imidazole-6-carboxamide] | <1.83 mL/min/kg | 63 nM | – | –
20 | COCCn1c(Cc2ccc(-c3cccc(OCc4ccc(C#N)cc4)n3)cc2F)nc2ccc(C(=O)O)cc21 [Example 499, 2-(4-(6-((4-cyanobenzyl)oxy)pyridin-2-yl)-2-fluorobenzyl)-1-(2-methoxyethyl)-1H-benzo[d]imidazole-6-carboxylic acid] | 3.5 mL/min/kg | – | 8.18 nM | –
21 | N#Cc1ccc(COc2cccc(-c3cc(F)c(Cc4nc5c(F)cc(C(=O)O)cc5n4CC45CC(CO4)C5)cc3F)n2)c(F)c1 [Example 649] | 5.83 mL/min/kg | 0.2 nM | – | –
22 | COC1(Cn2c(Cc3cc(F)c(-c4cccc(OCc5ccc(C#N)cc5F)n4)cc3F)nc3ccc(C(=O)O)cc32)CCC1 [Example 747] | 7.33 mL/min/kg | 0.81 nM | – | –
23 | COCCn1c(Cc2ccc(-c3cccc(OCc4cccc(C(C)(C)C#N)c4)n3)cc2F)nc2ccc(C(=O)O)cc21 [Example 142, 2-(4-(6-((3-(2-cyanopropan-2-yl)benzyl)oxy)pyridin-2-yl)-2-fluorobenzyl)-1-(2-methoxyethyl)-1H-benzo[d]imidazole-6-carboxylic acid] | 8.83 mL/min/kg | 162 nM | – | –
24 | COCCn1c(Cc2ccc(-c3cccc(OCc4ccc(C#N)cc4F)n3)cc2NC(C)=O)nc2ccc(C(=O)O)cc21 [Example 65, 2-(2-Acetamido-4-(6-((4-cyano-2-fluorobenzyl)oxy)pyridin-2-yl)benzyl)-1-(2-methoxyethyl)-1H-benzo[d]imidazole-6-carboxylic acid] | 7.17 mL/min/kg | 1230 nM | – | –
25 | N#Cc1ccc(COc2nccc(-c3cc(F)c(Cc4nc5c(F)cc(C(=O)O)cc5n4CC45CC(CO4)C5)cc3F)n2)c(F)c1 [Example 644] | 8 mL/min/kg | 0.69 nM | – | –
26 | N#Cc1ccc(COc2cccc(-c3ccc(Cc4nc5ccc(C(=O)O)cc5n4[C@@H]4CCOC4)c(F)c3)n2)c(F)c1 [Example 225, (R)-2-(4-(6-((4-cyano-2-fluorobenzyl)oxy)pyridin-2-yl)-2-fluorobenzyl)-1-(tetrahydrofuran-3-yl)-1H-benzo[d]imidazole-6-carboxylic acid] | 3.5 mL/min/kg | 13.1 nM | – | –
27 | N#Cc1ccc(COc2cccc(-c3ccc(Cc4nc5c(F)cc(C(=O)O)cc5n4CC4(CF)CC4)cc3F)n2)c(F)c1 [Example 276, 2-(4-(6-((4-cyano-2-fluorobenzyl)oxy)pyridin-2-yl)-3-fluorobenzyl)-4-fluoro-1-((1-(fluoromethyl)cyclopropyl)methyl)-1H-benzo[d]imidazole-6-carboxylic acid] | 6.42 mL/min/kg | 0.23 nM | – | –
28 | N#Cc1ccc(COc2cccc(-c3ccc(Cc4nc5ccc(C(=O)O)cc5n4C4COC4)c(F)c3)n2)c(F)c1 [Example 203, 2-(4-(6-((4-cyano-2-fluorobenzyl)oxy)pyridin-2-yl)-2-fluorobenzyl)-1-(oxetan-3-yl)-1H-benzo[d]imidazole-6-carboxylic acid] | 4.83 mL/min/kg | 420 nM | – | –
